In the supplement of paper PMC10733146:

What was measured:
Assay in all cases: viability relative to DMSO control (fraction); higher = less drug effect (more viable cells)
Settings in all cases: 48 h
Selinexor = compound: O=C(/C=C\n1cnc(-c2cc(C(F)(F)F)cc(C(F)(F)F)c2)n1)NNc1cnccn1 [Selinexor]
How it was run: (§1)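 Using 384-well plates with compounds already plated at five concentrations, one well per concentration, 4 × 10^4 primary mononuclear tumour cells were added per well. Cells were Ficoll-isolated from blood or bone marrow or came from processed lymph node, fresh or cryopreserved. They were kept for 48 h at 37 °C and 5% CO2 in RPMI-1640 supplemented with penicillin/streptomycin, L-glutamine and human serum, and viability was read as CellTiter-Glo luminescence relative to the median of 16 inner DMSO wells.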

Duvelisib = compound: C[C@H](Nc1ncnc2nc[nH]c12)c1cc2cccc(Cl)c2c(=O)n1-c1ccccc1 [Duvelisib]
How it was run: as §1

Tofacitinib = compound: C[C@@H]1CCN(C(=O)CC#N)C[C@@H]1N(C)c1ncnc2[nH]ccc12 [Tofacitinib]
How it was run: as §1

[1] = compound: CCc1ccc(/C=C2/SC(=S)NC2=O)cc1
How it was run: as §1

Etoposide = compound: COc1cc([C@@H]2c3cc4c(cc3[C@@H](O[C@@H]3O[C@@H]5CO[C@@H](C)O[C@H]5[C@H](O)[C@H]3O)[C@H]3COC(=O)[C@H]23)OCO4)cc(OC)c1O [Etoposide]
How it was run: as §1

Palbociclib = compound: CC(=O)c1c(C)c2cnc(Nc3ccc(N4CCNCC4)cn3)nc2n(C2CCCC2)c1=O [Palbociclib]
How it was run: as §1

Venetoclax = compound: CC1(C)CCC(CN2CCN(c3ccc(C(=O)NS(=O)(=O)c4ccc(NCC5CCOCC5)c([N+](=O)[O-])c4)c(Oc4cnc5[nH]ccc5c4)c3)CC2)=C(c2ccc(Cl)cc2)C1 [Venetoclax]
How it was run: as §1

Thalidomide = compound: O=C1CCC(N2C(=O)c3ccccc3C2=O)C(=O)N1 [Thalidomide]
How it was run: as §1

CPI-169 = compound: CCS(=O)(=O)N1CCC([C@@H](C)n2c(C)c(C(=O)NCc3c(OC)cc(C)[nH]c3=O)c3ccccc32)CC1 [CPI-169]
How it was run: as §1

[2] = compound: O=C(Nc1ccc2[nH]nc(-c3ccncc3)c2c1)[C@@H]1CCN(CC(=O)N2CCN(c3ccc(-c4ncccn4)cc3)CC2)C1
How it was run: as §1

SGC 0946 = compound: CC(C)N(CCCNC(=O)Nc1ccc(C(C)(C)C)cc1)C[C@H]1O[C@@H](n2cc(Br)c3c(N)ncnc32)[C@H](O)[C@@H]1O [SGC 0946]
How it was run: as §1

Navitoclax = compound: CC1(C)CCC(c2ccc(Cl)cc2)=C(CN2CCN(c3ccc(C(=O)NS(=O)(=O)c4ccc(N[C@H](CCN5CCOCC5)CSc5ccccc5)c(S(=O)(=O)C(F)(F)F)c4)cc3)CC2)C1 [Navitoclax]
How it was run: as §1

Roscovitine = compound: CC[C@H](CO)Nc1nc(NCc2ccccc2)c2ncn(C(C)C)c2n1 [Roscovitine]
How it was run: as §1

EPZ-6438 = compound: CCN(c1cc(-c2ccc(CN3CCOCC3)cc2)cc(C(=O)NCc2c(C)cc(C)[nH]c2=O)c1C)C1CCOCC1 [EPZ-6438]
How it was run: as §1

For primary MCL patient cells (S068), the viability (Selinexor; 0.008 µM) was 0.862, the viability (Selinexor; 0.04 µM) was 0.947 and the viability (Selinexor; 0.2 µM) was 1.31. The viability (Selinexor; 1 µM) was 1.01, the viability (Selinexor; 5 µM) was 1.12 and the viability (Duvelisib; 0.0016 µM) was 0.69. For the same test system, the viability (Duvelisib; 0.008 µM) was 0.635, the viability (Duvelisib; 0.04 µM) was 0.572 and the viability (Duvelisib; 0.2 µM) was 0.585. For the same test system, the viability (Duvelisib; 1 µM) was 0.493, the viability (Tofacitinib; 0.024 µM) was 0.953 and the viability (Tofacitinib; 0.12 µM) was 0.948. For the same test system, the viability (Tofacitinib; 0.6 µM) was 0.896, the viability (Tofacitinib; 3 µM) was 0.884 and the viability (Tofacitinib; 15 µM) was 0.757. It also gave a viability ([1]; 0.024 µM) of 0.624, a viability ([1]; 0.12 µM) of 0.721 and a viability ([1]; 0.6 µM) of 0.737. For the same test system, the viability ([1]; 3 µM) was 0.806, the viability ([1]; 15 µM) was 0.791 and the viability (Etoposide; 0.032 µM) was 1.03. The viability (Etoposide; 0.16 µM) was 0.956, the viability (Etoposide; 0.8 µM) was 0.952 and the viability (Etoposide; 4 µM) was 0.933. The viability (Etoposide; 20 µM) was 0.624, the viability (Palbociclib; 0.024 µM) was 0.913 and the viability (Palbociclib; 0.12 µM) was 0.842. For the same test system, the viability (Palbociclib; 0.6 µM) was 0.547, the viability (Palbociclib; 3 µM) was 0.367 and the viability (Palbociclib; 15 µM) was 0.262. It also gave a viability (Venetoclax; 0.00064 µM) of 0.99, a viability (Venetoclax; 0.0032 µM) of 0.781 and a viability (Venetoclax; 0.016 µM) of 0.489. The viability (Venetoclax; 0.08 µM) was 0.389, the viability (Venetoclax; 0.4 µM) was 0.216 and the viability (Thalidomide; 0.032 µM) was 0.978. The viability (Thalidomide; 0.16 µM) was 0.936, the viability (Thalidomide; 0.8 µM) was 0.917 and the viability (Thalidomide; 4 µM) was 0.966. For the same test system, the viability (Thalidomide; 20 µM) was 0.96, the viability (CPI-169; 0.024 µM) was 0.823 and the viability (CPI-169; 0.12 µM) was 0.922. The viability (CPI-169; 0.6 µM) was 0.869, the viability (CPI-169; 3 µM) was 0.937 and the viability (CPI-169; 15 µM) was 0.889. For the same test system, the viability ([2]; 0.008 µM) was 0.882, the viability ([2]; 0.04 µM) was 0.828 and the viability ([2]; 0.2 µM) was 0.768. For the same test system, the viability ([2]; 1 µM) was 0.7, the viability ([2]; 5 µM) was 0.665 and the viability (SGC 0946; 0.024 µM) was 0.822. The viability (SGC 0946; 0.12 µM) was 0.893, the viability (SGC 0946; 0.6 µM) was 0.877 and the viability (SGC 0946; 3 µM) was 0.79. The viability (SGC 0946; 15 µM) was 0.462, the viability (Navitoclax; 0.0032 µM) was 1.04 and the viability (Navitoclax; 0.016 µM) was 0.906. For the same test system, the viability (Navitoclax; 0.08 µM) was 0.642, the viability (Navitoclax; 0.4 µM) was 0.326 and the viability (Navitoclax; 2 µM) was 0.191. It also gave a viability (Roscovitine; 0.032 µM) of 0.834, a viability (Roscovitine; 0.16 µM) of 0.913 and a viability (Roscovitine; 0.8 µM) of 0.772. The viability (Roscovitine; 4 µM) was 0.717, the viability (Roscovitine; 20 µM) was 0.351 and the viability (EPZ-6438; 0.024 µM) was 0.954. For the same test system, the viability (EPZ-6438; 0.12 µM) was 1.04, the viability (EPZ-6438; 0.6 µM) was 0.997 and the viability (EPZ-6438; 3 µM) was 0.918. The viability (EPZ-6438; 15 µM) was 0.767.

In the case of primary T-PLL patient cells (S008), the viability (Selinexor; 0.008 µM) was 1.03, the viability (Selinexor; 0.04 µM) was 0.983 and the viability (Selinexor; 0.2 µM) was 0.879. The viability (Selinexor; 1 µM) was 0.693, the viability (Selinexor; 5 µM) was 0.58 and the viability (Duvelisib; 0.0016 µM) was 0.994. It also gave a viability (Duvelisib; 0.008 µM) of 0.976, a viability (Duvelisib; 0.04 µM) of 1.02 and a viability (Duvelisib; 0.2 µM) of 0.985. The viability (Duvelisib; 1 µM) was 1.02, the viability (Tofacitinib; 0.024 µM) was 0.919 and the viability (Tofacitinib; 0.12 µM) was 0.906. It also gave a viability (Tofacitinib; 0.6 µM) of 0.922, a viability (Tofacitinib; 3 µM) of 0.913 and a viability (Tofacitinib; 15 µM) of 0.927. For the same test system, the viability ([1]; 0.024 µM) was 0.995, the viability ([1]; 0.12 µM) was 0.946 and the viability ([1]; 0.6 µM) was 1.12. The viability ([1]; 3 µM) was 0.984, the viability ([1]; 15 µM) was 0.984 and the viability (Etoposide; 0.032 µM) was 1.01. For the same test system, the viability (Etoposide; 0.16 µM) was 1.09, the viability (Etoposide; 0.8 µM) was 1.03 and the viability (Etoposide; 4 µM) was 1.03. It also gave a viability (Etoposide; 20 µM) of 0.945, a viability (Palbociclib; 0.024 µM) of 1.05 and a viability (Palbociclib; 0.12 µM) of 1.02. It also gave a viability (Palbociclib; 0.6 µM) of 1.02, a viability (Palbociclib; 3 µM) of 1.01 and a viability (Palbociclib; 15 µM) of 0.778. For the same test system, the viability (Venetoclax; 0.00064 µM) was 1.03, the viability (Venetoclax; 0.0032 µM) was 0.874 and the viability (Venetoclax; 0.016 µM) was 0.463. It also gave a viability (Venetoclax; 0.08 µM) of 0.0995, a viability (Venetoclax; 0.4 µM) of 0.0666 and a viability (Thalidomide; 0.032 µM) of 1.04. It also gave a viability (Thalidomide; 0.16 µM) of 0.979, a viability (Thalidomide; 0.8 µM) of 1.04 and a viability (Thalidomide; 4 µM) of 0.987. It also gave a viability (Thalidomide; 20 µM) of 1.05, a viability (CPI-169; 0.024 µM) of 1 and a viability (CPI-169; 0.12 µM) of 0.999. It also gave a viability (CPI-169; 0.6 µM) of 1.03, a viability (CPI-169; 3 µM) of 1.02 and a viability (CPI-169; 15 µM) of 1.05. It also gave a viability ([2]; 0.008 µM) of 1.03, a viability ([2]; 0.04 µM) of 1.03 and a viability ([2]; 0.2 µM) of 1.04. The viability ([2]; 1 µM) was 1.06, the viability ([2]; 5 µM) was 0.938 and the viability (SGC 0946; 0.024 µM) was 1.02. The viability (SGC 0946; 0.12 µM) was 1.14, the viability (SGC 0946; 0.6 µM) was 0.98 and the viability (SGC 0946; 3 µM) was 1.04. The viability (SGC 0946; 15 µM) was 0.868, the viability (Navitoclax; 0.0032 µM) was 1.01 and the viability (Navitoclax; 0.016 µM) was 1.04. The viability (Navitoclax; 0.08 µM) was 0.648, the viability (Navitoclax; 0.4 µM) was 0.115 and the viability (Navitoclax; 2 µM) was 0.0601. The viability (Roscovitine; 0.032 µM) was 0.978, the viability (Roscovitine; 0.16 µM) was 1.06 and the viability (Roscovitine; 0.8 µM) was 0.972. For the same test system, the viability (Roscovitine; 4 µM) was 1.05, the viability (Roscovitine; 20 µM) was 0.949 and the viability (EPZ-6438; 0.024 µM) was 0.986. It also gave a viability (EPZ-6438; 0.12 µM) of 1, a viability (EPZ-6438; 0.6 µM) of 1.04 and a viability (EPZ-6438; 3 µM) of 1. For the same test system, the viability (EPZ-6438; 15 µM) was 0.918.
